Measured values: US20200187502A1, “MICROBIOCIDAL OXADIAZOLE DERIVATIVES” (SYNGENTA PARTICIPATIONS AG, priority 2017, published 2020)

Key:
[1] = tested on: Puccinia recondita f. Sp. Tritici; assay: Fungicidal activity, wheat leaf disc curative (brown rust); type: in vivo; conditions: foliar, 200 ppm in the applied formulation, wheat leaf segments cv. Kanzler, curative (applied 1 day after inoculation), compared to untreated control, 6 to 8 days after application, read-out: disease control
Procedure, shortened: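 Wheat cv. Kanzler leaf segments on agar were inoculated with fungal spore suspension, held dark at 19° C and 75% RH, then sprayed 1 day later with formulated compound diluted in water. Incubation continued at 19° C, 75% RH, 12 h light/12 h dark; percent disease control versus untreated was scored 6 to 8 days after application.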

[2] = tested on: Glomerella lacenarium (Colletotrichum lacenarium); assay: Fungicidal activity, liquid culture, cucumber preventative (anthracnose); type: cell-based; conditions: 20 ppm in the applied formulation, liquid culture in PDB, inhibition of growth measured photometrically 3 to 4 days after application, compared to untreated control, read-out: disease control
Procedure, shortened: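 Conidia from cryogenic storage were mixed into potato dextrose broth and added to DMSO solutions of test compound in microtiter plates. Plates were incubated at 24° C. and growth inhibition read photometrically 3 to 4 days after application, as percent antifungal activity versus untreated check.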

Phakopsora pachyrhizi = assay: Fungicidal activity, soybean leaf disc preventative (Asian soybean rust); type: in vivo; conditions: foliar, 200 ppm in the applied formulation, soybean leaf disks, compared to untreated control, 12 to 14 days after application, read-out: disease control
Description: Leaf disks or leaf segments of various plant species are cut from plants grown in a greenhouse. The cut leaf disks or segments are placed in multiwell plates (24-well format) onto water agar. The leaf disks are sprayed with a test solution before (preventative) or after (curative) inoculation. Compounds to be tested are prepared as DMSO solutions (max. 10 mg/ml) which are diluted to the appropriate concentration with 0.025% Tween20 just before spraying. The inoculated leaf disks or segments are incubated under defined conditions (temperature, relative humidity, light, etc.) according to the respective test system. A single evaluation of disease level is carried out 3 to 14 days after inoculation, depending on the pathosystem. Percent disease control relative to the untreated check leaf disks or segments is then calculated.
Soybean leaf disks are placed on water agar in multiwell plates (24-well format) and sprayed with the formulated test compound diluted in water. One day after application leaf discs are inoculated by spraying a spore suspension on the lower leaf surface. After an incubation period in a climate cabinet of 24-36 hours in darkness at 20° C. and 75% rh leaf disc are kept at 20° C. with 12 h light/day and 75% rh. The activity of a compound is assessed as percent disease control compared to untreated when an appropriate level of disease damage appears in untreated check leaf disks (12 to 14 days after application).
The following compounds at 200 ppm in the applied formulation give at least 80% disease control in this test when compared to untreated control leaf disks under the same conditions, which show extensive disease development.

[3] = tested on: Puccinia recondita f. Sp. Tritici; assay: Fungicidal activity, wheat leaf disc preventative (brown rust); type: in vivo; conditions: foliar, 200 ppm in the applied formulation, wheat leaf segments cv. Kanzler, compared to untreated control, 7 to 9 days after application, read-out: disease control
Procedure, shortened: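 Wheat cv. Kanzler leaf segments on agar were sprayed with formulated compound in water, then inoculated with spores 1 day later. Incubated at 19° C, 75% rh, 12 h light/12 h dark; percent disease control versus untreated scored 7 to 9 days after application.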

COC(C)C(=O)N(Cc1ccc(-c2noc(C(F)(F)F)n2)s1)OC (centres unmarked) [Compound 1.1, N,2-dimethoxy-N-[[5-[5-(trifluoromethyl)-1,2,4-oxadiazol-3-yl]-2-thienyl]methyl]propanamide]
≥ 80%: pest or weed control at 200 ppm [1] | inhibition of growth at 20 ppm [2] | pest or weed control at 200 ppm (Phakopsora pachyrhizi) | pest or weed control at 200 ppm [3]

CON(Cc1ccc(-c2noc(C(F)(F)F)n2)s1)C(=O)C1CC1 [Compound 1.4, N-methoxy-N-[[5-[5-(trifluoromethyl)-1,2,4-oxadiazol-3-yl]-2-thienyl]methyl]cyclopropanecarboxamide]
≥ 80%: pest or weed control at 200 ppm [1] | inhibition of growth at 20 ppm [2] | pest or weed control at 200 ppm (Phakopsora pachyrhizi) | pest or weed control at 200 ppm [3]

CON(Cc1ccc(-c2noc(C(F)(F)F)n2)s1)C(=O)CNC(C)=O [Compound 1.7, 2-acetamido-N-methoxy-N-[[5-[5-(trifluoromethyl)-1,2,4-oxadiazol-3-yl]-2-thienyl]methyl]acetamide]
≥ 80%: pest or weed control at 200 ppm [1] | inhibition of growth at 20 ppm [2] | pest or weed control at 200 ppm (Phakopsora pachyrhizi) | pest or weed control at 200 ppm [3]

CON(Cc1ccc(-c2noc(C(F)(F)F)n2)s1)C(=O)C1CC1(F)F (centres unmarked) [Compound 1.8, 2,2-difluoro-N-methoxy-N-[[5-[5-(trifluoromethyl)-1,2,4-oxadiazol-3-yl]-2-thienyl]methyl]cyclopropanecarboxamide]
≥ 80%: pest or weed control at 200 ppm [1] | inhibition of growth at 20 ppm [2] | pest or weed control at 200 ppm (Phakopsora pachyrhizi) | pest or weed control at 200 ppm [3]

COCC(=O)N(Cc1ccc(-c2noc(C(F)(F)F)n2)s1)OC [Compound 1.9, N,2-dimethoxy-N-[[5-[5-(trifluoromethyl)-1,2,4-oxadiazol-3-yl]-2-thienyl]methyl]acetamide]
≥ 80%: pest or weed control at 200 ppm [1] | inhibition of growth at 20 ppm [2] | pest or weed control at 200 ppm (Phakopsora pachyrhizi) | pest or weed control at 200 ppm [3]

CON(Cc1ccc(-c2noc(C(F)(F)F)n2)s1)C(=O)C1CCOC1 (centres unmarked) [Compound 1.10, N-methoxy-N-[[5-[5-(trifluoromethyl)-1,2,4-oxadiazol-3-yl]-2-thienyl]methyl]tetrahydrofuran-3-carboxamide]
≥ 80%: pest or weed control at 200 ppm [1] | inhibition of growth at 20 ppm [2] | pest or weed control at 200 ppm (Phakopsora pachyrhizi) | pest or weed control at 200 ppm [3]

COCCC(=O)N(Cc1ccc(-c2noc(C(F)(F)F)n2)s1)OC [Compound 1.11, N,3-dimethoxy-N-[[5-[5-(trifluoromethyl)-1,2,4-oxadiazol-3-yl]-2-thienyl]methyl]propanamide]
≥ 80%: pest or weed control at 200 ppm [1] | inhibition of growth at 20 ppm [2] | pest or weed control at 200 ppm (Phakopsora pachyrhizi) | pest or weed control at 200 ppm [3]

CCC(=O)N(Cc1ccc(-c2noc(C(F)(F)F)n2)s1)OC [Compound 1.12, N-methoxy-N-[[5-[5-(trifluoromethyl)-1,2,4-oxadiazol-3-yl]-2-thienyl]methyl]propanamide]
≥ 80%: pest or weed control at 200 ppm [1] | inhibition of growth at 20 ppm [2] | pest or weed control at 200 ppm (Phakopsora pachyrhizi) | pest or weed control at 200 ppm [3]

CON(Cc1ccc(-c2noc(C(F)(F)F)n2)s1)C(=O)C1CCC1 [Compound 1.13, N-methoxy-N-[[5-[5-(trifluoromethyl)-1,2,4-oxadiazol-3-yl]-2-thienyl]methyl]cyclobutanecarboxamide]
≥ 80%: pest or weed control at 200 ppm [1] | inhibition of growth at 20 ppm [2] | pest or weed control at 200 ppm (Phakopsora pachyrhizi) | pest or weed control at 200 ppm [3]

CON(Cc1ccc(-c2noc(C(F)(F)F)n2)s1)C(=O)C1CC1C (centres unmarked) [Compound 1.14, N-methoxy-2-methyl-N-[[5-[5-(trifluoromethyl)-1,2,4-oxadiazol-3-yl]-2-thienyl]methyl]cyclopropanecarboxamide]
≥ 80%: pest or weed control at 200 ppm [1] | inhibition of growth at 20 ppm [2] | pest or weed control at 200 ppm (Phakopsora pachyrhizi) | pest or weed control at 200 ppm [3]

CON(Cc1ccc(-c2noc(C(F)(F)F)n2)s1)C(=O)C1(C)CC1 [Compound 1.15, N-methoxy-1-methyl-N-[[5-[5-(trifluoromethyl)-1,2,4-oxadiazol-3-yl]-2-thienyl]methyl]cyclopropanecarboxamide]
≥ 80%: pest or weed control at 200 ppm [1] | inhibition of growth at 20 ppm [2] | pest or weed control at 200 ppm (Phakopsora pachyrhizi) | pest or weed control at 200 ppm [3]

CCN(Cc1ccc(-c2noc(C(F)(F)F)n2)s1)C(=O)CC(F)(F)F [Compound 4.30, N-ethyl-3,3,3-trifluoro-N-[[5-[5-(trifluoromethyl)-1,2,4-oxadiazol-3-yl]-2-thienyl]methyl]propanamide]
≥ 80%: pest or weed control at 200 ppm [1] | inhibition of growth at 20 ppm [2] | pest or weed control at 200 ppm (Phakopsora pachyrhizi)

CCC(=O)N(Cc1ccc(-c2noc(C(F)(F)F)n2)s1)C(C)C [Compound 4.46, N-isopropyl-N-[[5-[5-(trifluoromethyl)-1,2,4-oxadiazol-3-yl]-2-thienyl]methyl]propanamide]
≥ 80%: pest or weed control at 200 ppm [1] | inhibition of growth at 20 ppm [2] | pest or weed control at 200 ppm (Phakopsora pachyrhizi)

CC(=O)N(Cc1ccc(-c2noc(C(F)(F)F)n2)s1)C(C)C [Compound 4.51, N-isopropyl-N-[[5-[5-(trifluoromethyl)-1,2,4-oxadiazol-3-yl]-2-thienyl]methyl]acetamide]
≥ 80%: pest or weed control at 200 ppm [1] | inhibition of growth at 20 ppm [2] | pest or weed control at 200 ppm (Phakopsora pachyrhizi)

CN(Cc1ccc(-c2noc(C(F)(F)F)n2)s1)C(=O)N1CCCO1 [Compound 5.56, N-methyl-N-[[5-[5-(trifluoromethyl)-1,2,4-oxadiazol-3-yl]-2-thienyl]methyl]isoxazolidine-2-carboxamide]
≥ 80%: inhibition of growth at 20 ppm [2] | pest or weed control at 200 ppm (Phakopsora pachyrhizi) | pest or weed control at 200 ppm [3]

CCN(Cc1ccc(-c2noc(C(F)(F)F)n2)s1)S(=O)(=O)CCOC [Compound 6.12, N-ethyl-2-methoxy-N-[[5-[5-(trifluoromethyl)-1,2,4-oxadiazol-3-yl]-2-thienyl]methyl]ethanesulfonamide]
≥ 80%: inhibition of growth at 20 ppm [2] | pest or weed control at 200 ppm (Phakopsora pachyrhizi) | pest or weed control at 200 ppm [3]

CCN(Cc1ccc(-c2noc(C(F)(F)F)n2)s1)S(=O)(=O)N(C)C [Compound 6.18, N-(dimethylsulfamoyl)-N-[[5-[5-(trifiuoromethyl)-1,2,4-oxadiazol-3-yl]-2-thienyl]methyl]ethanamine]
≥ 80%: inhibition of growth at 20 ppm [2] | pest or weed control at 200 ppm (Phakopsora pachyrhizi) | pest or weed control at 200 ppm [3]

CCCS(=O)(=O)N(CC)Cc1ccc(-c2noc(C(F)(F)F)n2)s1 [Compound 6.20, N-ethyl-N-[[5-[5-(trifluoromethyl)-1,2,4-oxadiazol-3-yl]-2-thienyl]methyl]propane-1-sulfonamide]
≥ 80%: inhibition of growth at 20 ppm [2] | pest or weed control at 200 ppm (Phakopsora pachyrhizi) | pest or weed control at 200 ppm [3]

CN(Cc1ccc(-c2noc(C(F)(F)F)n2)s1)S(=O)(=O)Cc1ccccc1 [Compound 6.22, N-methyl-1-phenyl-N-[[5-[5-(trifluoromethyl)-1,2,4-oxadiazol-3-yl]-2-thienyl]methyl]methanesulfonamide]
≥ 80%: inhibition of growth at 20 ppm [2] | pest or weed control at 200 ppm (Phakopsora pachyrhizi) | pest or weed control at 200 ppm [3]
